# Data as given in patent publication US9469674B2 (HAINAN UNIVERSITY, dated 2016).
# “Also recorded” adds a separate entry of the source. Where a SMILES comes first, the peptide text is derived from it. Bridges are numbered along the chain shown (N, C = ends). Where no end group is shown, it is not given here.
# B1: α-conotoxin TxIB/Txd4(G) (peptide)
# peptide: GCCSDPPCRNKHPDLCG
# modifications: not fully specified; ends and bridges not checked
# B2: α-conotoxin TxIB/Txd4 (peptide)
# peptide: GCCSDPPCRNKHPDLC
# modifications: not fully specified; ends and bridges not checked
# Assays:
# α9α10 nAChR = α9α10 nAChR (Rattus norvegicus, UniProt P43144+Q9JLB5); test: cell-based
# α6/α3β4 nAChR = α6/α3β4 nAChR (Rattus norvegicus, UniProt P04757+P12392+P43143); test: cell-based; assay type: cell-based
# Chain of α6/α3β4 nAChR (P04757 whole entry, looked up): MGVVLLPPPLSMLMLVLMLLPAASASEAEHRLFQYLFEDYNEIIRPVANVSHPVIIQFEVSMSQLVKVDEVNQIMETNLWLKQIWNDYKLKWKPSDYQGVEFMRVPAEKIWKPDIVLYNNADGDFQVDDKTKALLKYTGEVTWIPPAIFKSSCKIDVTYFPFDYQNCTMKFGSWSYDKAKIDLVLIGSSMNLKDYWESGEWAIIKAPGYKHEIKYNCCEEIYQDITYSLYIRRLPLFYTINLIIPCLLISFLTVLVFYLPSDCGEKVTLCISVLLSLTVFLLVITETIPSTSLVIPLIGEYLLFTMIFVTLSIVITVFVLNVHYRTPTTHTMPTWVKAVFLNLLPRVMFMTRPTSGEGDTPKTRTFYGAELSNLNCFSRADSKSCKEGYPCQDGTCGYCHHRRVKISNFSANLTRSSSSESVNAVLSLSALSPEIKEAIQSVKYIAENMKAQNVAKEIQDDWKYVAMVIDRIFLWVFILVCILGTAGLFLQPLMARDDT
# Chain of α6/α3β4 nAChR (P12392 whole entry, looked up): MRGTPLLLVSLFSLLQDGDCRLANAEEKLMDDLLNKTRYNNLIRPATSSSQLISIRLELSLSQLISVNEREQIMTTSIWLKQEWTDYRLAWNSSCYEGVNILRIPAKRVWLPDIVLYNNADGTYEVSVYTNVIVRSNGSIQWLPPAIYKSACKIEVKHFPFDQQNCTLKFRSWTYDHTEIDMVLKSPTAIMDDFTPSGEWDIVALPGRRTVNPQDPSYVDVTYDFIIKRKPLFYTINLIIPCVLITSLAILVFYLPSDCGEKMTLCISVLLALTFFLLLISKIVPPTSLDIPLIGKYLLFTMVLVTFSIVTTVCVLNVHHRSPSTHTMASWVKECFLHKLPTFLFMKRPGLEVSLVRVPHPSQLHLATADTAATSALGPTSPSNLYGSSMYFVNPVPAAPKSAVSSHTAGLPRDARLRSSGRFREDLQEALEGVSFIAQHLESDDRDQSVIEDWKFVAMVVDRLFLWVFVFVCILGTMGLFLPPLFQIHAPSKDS
# Chain of α6/α3β4 nAChR (P43143 whole entry, looked up): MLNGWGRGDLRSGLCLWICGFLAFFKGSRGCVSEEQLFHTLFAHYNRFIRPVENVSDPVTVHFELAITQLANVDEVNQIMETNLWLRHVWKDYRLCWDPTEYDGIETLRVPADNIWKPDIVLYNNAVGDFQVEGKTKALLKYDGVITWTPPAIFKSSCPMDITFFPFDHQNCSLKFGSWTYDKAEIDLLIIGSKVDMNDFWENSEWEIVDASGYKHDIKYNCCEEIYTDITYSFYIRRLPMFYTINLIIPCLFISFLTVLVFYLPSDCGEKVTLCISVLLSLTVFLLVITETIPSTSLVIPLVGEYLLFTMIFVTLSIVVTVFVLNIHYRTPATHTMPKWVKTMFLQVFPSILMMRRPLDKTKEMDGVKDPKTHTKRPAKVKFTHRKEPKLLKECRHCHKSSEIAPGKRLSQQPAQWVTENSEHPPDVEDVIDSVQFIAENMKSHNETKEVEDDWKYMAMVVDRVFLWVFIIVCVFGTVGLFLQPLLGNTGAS
# α4β4 nAChR = α4β4 nAChR (Rattus norvegicus, UniProt P09483+P12392); test: cell-based; assay type: cell-based
# α6/α3β2β3 nAChR = α6/α3β2β3 nAChR (Rattus norvegicus, UniProt P04757+P12390+P43143); test: cell-based; assay type: cell-based
# Chain of α6/α3β2β3 nAChR (P04757 whole entry, looked up): as the sequence (P04757 whole entry, looked up) above
# Chain of α6/α3β2β3 nAChR (P12390 whole entry, looked up): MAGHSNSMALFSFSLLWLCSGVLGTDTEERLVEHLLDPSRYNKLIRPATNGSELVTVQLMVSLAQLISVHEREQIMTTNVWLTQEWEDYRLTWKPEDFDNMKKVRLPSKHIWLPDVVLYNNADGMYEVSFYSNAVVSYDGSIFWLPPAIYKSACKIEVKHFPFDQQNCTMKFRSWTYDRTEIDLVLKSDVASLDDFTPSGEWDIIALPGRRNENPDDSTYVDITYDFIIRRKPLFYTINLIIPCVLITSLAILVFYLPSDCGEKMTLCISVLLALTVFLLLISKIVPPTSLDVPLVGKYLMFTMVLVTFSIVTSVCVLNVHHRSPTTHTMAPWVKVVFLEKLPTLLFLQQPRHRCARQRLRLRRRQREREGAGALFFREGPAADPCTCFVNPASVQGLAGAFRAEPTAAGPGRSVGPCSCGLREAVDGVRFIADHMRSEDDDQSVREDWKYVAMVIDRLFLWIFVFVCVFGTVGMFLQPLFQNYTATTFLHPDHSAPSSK
# Chain of α6/α3β2β3 nAChR (P43143 whole entry, looked up): as the sequence (P43143 whole entry, looked up) above
# α2β4 nAChR = α2β4 nAChR (Rattus norvegicus, UniProt P12389+P12392); test: cell-based; assay type: cell-based
# α3β4 nAChR = α3β4 nAChR (Rattus norvegicus, UniProt P04757+P12392); test: cell-based; assay type: cell-based
# α7 nAChR = α7 nAChR (Rattus norvegicus, UniProt Q05941); test: cell-based; assay type: cell-based
# Chain of α7 nAChR (Q05941 23-502 limits assumed): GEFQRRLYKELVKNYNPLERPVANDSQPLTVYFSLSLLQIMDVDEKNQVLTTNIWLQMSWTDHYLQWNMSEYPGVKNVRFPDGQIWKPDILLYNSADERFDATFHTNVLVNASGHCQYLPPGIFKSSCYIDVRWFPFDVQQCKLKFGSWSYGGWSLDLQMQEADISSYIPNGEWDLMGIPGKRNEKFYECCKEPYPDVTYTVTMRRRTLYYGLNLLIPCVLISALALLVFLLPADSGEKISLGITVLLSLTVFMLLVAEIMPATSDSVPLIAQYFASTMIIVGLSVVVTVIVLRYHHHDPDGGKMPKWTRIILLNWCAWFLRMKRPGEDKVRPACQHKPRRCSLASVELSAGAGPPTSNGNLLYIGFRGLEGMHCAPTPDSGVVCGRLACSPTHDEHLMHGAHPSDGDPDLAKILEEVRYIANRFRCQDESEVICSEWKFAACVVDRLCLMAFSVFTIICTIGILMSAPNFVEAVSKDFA
# α2β2 nAChR = α2β2 nAChR (Rattus norvegicus, UniProt P12389+P12390); test: cell-based; assay type: cell-based
# α4β2 nAChR = α4β2 nAChR (Rattus norvegicus, UniProt P09483+P12390); test: cell-based
# α3β2 nAChR = α3β2 nAChR (Rattus norvegicus, UniProt P04757+P12390); test: cell-based; assay type: cell-based; settings: for IC50: IC50 (half-blocking dose)
# human α6/α3β2β3 nAChR = human α6/α3β2β3 nAChR (Homo sapiens, UniProt P17787+P32297+Q15825); test: cell-based; assay type: cell-based
# other nAChRs subtypes = assay type: cell-based; settings: read-out: IC50 on other nAChRs subtypes (no blocking activity)
# [1] = molecular target: α9α10 acetylcholine receptor (Homo sapiens, UniProt Q9GZZ6+Q9UGM1); settings: read-out: half-blocking dose IC50; cited from earlier work
# Chain of α9α10 acetylcholine receptor (Q9UGM1 26-479 limits assumed): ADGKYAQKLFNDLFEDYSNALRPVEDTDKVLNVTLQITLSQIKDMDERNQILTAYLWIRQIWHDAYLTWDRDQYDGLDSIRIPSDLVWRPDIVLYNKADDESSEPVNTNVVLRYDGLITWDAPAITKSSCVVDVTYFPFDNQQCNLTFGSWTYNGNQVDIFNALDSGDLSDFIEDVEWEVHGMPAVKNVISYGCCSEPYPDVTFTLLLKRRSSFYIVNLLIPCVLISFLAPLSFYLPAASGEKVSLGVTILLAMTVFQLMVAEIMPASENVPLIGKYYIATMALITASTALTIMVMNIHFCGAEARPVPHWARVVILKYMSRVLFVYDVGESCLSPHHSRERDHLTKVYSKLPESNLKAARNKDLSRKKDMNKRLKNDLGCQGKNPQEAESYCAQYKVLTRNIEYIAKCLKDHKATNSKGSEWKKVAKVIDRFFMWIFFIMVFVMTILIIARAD
# Chain of α9α10 acetylcholine receptor (Q9GZZ6 25-450 limits assumed): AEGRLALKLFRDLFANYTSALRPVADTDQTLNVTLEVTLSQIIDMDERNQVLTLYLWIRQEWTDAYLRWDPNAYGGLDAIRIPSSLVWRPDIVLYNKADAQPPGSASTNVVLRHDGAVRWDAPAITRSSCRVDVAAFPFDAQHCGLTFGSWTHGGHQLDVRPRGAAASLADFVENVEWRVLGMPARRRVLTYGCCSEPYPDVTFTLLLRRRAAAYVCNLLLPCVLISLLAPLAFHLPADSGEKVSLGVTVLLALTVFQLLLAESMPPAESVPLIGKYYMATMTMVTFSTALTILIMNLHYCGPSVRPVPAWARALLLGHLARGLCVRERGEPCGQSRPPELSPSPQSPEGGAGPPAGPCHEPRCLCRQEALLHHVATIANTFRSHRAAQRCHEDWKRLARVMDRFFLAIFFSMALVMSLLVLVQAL
# [2] = molecular target: α3β2 acetylcholine receptor (Homo sapiens, UniProt P17787+P32297); settings: read-out: half-blocking dose IC50; cited from earlier work
# Chain of α3β2 acetylcholine receptor (P32297 32-505 limits assumed): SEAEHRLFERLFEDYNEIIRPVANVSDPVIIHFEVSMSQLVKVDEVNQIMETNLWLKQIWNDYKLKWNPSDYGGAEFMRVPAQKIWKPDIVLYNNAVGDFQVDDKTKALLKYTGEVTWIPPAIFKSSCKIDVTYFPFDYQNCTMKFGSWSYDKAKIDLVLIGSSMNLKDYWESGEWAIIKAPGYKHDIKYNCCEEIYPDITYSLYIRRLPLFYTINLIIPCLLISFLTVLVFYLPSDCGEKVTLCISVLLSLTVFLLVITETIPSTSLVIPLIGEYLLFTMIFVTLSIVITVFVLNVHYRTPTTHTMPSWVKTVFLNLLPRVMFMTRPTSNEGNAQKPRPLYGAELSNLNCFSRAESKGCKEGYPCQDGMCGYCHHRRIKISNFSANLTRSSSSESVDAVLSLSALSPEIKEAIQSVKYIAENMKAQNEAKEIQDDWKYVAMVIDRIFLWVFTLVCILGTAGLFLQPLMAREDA
# Chain of α3β2 acetylcholine receptor (P17787 26-502 limits assumed): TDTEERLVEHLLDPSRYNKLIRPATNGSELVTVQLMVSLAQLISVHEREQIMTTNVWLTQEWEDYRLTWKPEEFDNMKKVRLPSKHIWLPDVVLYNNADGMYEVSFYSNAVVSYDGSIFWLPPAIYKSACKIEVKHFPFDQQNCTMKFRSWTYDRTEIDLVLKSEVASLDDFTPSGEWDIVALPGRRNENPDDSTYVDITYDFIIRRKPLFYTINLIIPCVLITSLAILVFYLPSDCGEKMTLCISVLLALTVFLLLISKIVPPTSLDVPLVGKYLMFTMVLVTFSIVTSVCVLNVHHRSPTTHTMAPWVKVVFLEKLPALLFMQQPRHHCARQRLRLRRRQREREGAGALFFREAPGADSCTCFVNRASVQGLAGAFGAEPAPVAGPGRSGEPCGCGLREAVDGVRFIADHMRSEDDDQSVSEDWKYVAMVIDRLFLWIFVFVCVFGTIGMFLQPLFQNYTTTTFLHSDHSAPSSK
# [3] = molecular target: α6/α3β2β3 acetylcholine receptor; settings: read-out: half-blocking dose IC50; cited from earlier work
# [4] = molecular target: α6/α3β4 acetylcholine receptor; settings: read-out: half-blocking dose IC50; cited from earlier work
# [5] = molecular target: α7 acetylcholine receptor (Homo sapiens, UniProt P36544); settings: read-out: half-blocking dose IC50; cited from earlier work
# Chain of α7 acetylcholine receptor (P36544 23-502 limits assumed): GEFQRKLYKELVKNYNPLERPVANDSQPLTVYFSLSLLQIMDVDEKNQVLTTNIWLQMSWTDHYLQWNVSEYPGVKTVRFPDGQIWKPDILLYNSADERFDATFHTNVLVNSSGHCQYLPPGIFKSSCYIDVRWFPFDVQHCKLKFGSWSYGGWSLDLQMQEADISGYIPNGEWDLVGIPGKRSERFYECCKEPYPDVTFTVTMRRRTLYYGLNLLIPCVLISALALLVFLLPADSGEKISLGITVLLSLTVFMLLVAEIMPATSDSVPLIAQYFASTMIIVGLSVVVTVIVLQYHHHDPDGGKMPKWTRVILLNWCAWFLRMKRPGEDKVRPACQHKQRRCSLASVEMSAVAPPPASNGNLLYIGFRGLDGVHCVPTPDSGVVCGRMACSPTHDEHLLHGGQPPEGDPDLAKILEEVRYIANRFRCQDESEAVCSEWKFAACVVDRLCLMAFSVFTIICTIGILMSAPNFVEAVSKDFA
# [6] = molecular target: α3β4 acetylcholine receptor; settings: read-out: half-blocking dose IC50; cited from earlier work
# nAChRs = settings: cited from earlier work
# [7] = molecular target: rat α6/α3β2β3 nAChR (rat) (UniProt P12390)
# rat α6/α3β4 nAChR (rat) = rat α6/α3β4 nAChR (rat) (UniProt P12392)
# rat α7 nAChR = rat α7 nAChR (rat, UniProt Q05941); test: cell-based or functional assay
# rat α2β2 nAChR = rat α2β2 nAChR (rat, UniProt P12389); test: cell-based or functional assay
# rat α9α10 nAChR = rat α9α10 nAChR (rat, UniProt P43144); test: cell-based or functional assay
# rat α4β2 nAChR = rat α4β2 nAChR (rat, UniProt P09483); test: cell-based or functional assay
# rat α3β2 nAChR = rat α3β2 nAChR (rat, UniProt P04757); test: cell-based or functional assay
# rat α4β4 nAChR = rat α4β4 nAChR (rat, UniProt P09483); test: cell-based or functional assay
# rat α2β4 nAChR = rat α2β4 nAChR (rat, UniProt P12389); test: cell-based or functional assay
# rat α3β4 nAChR = rat α3β4 nAChR (rat, UniProt P04757); test: cell-based or functional assay
molecule,measurement,setting,value
"CC(C)C[C@@H]1NC(=O)[C@H](CC(=O)O)NC(=O)[C@@H]2CCCN2C(=O)[C@H](Cc2c[nH]cn2)NC(=O)[C@H](CCCCN)NC(=O)[C@H](CC(N)=O)NC(=O)[C@H](CCCNC(=N)N)NC(=O)[C@@H]2CSSC[C@H](NC(=O)CN)C(=O)N[C@@H](CSSC[C@@H](C(=O)NCC(N)=O)NC1=O)C(=O)N[C@@H](CO)C(=O)N[C@@H](CC(=O)O)C(=O)N1CCC[C@H]1C(=O)N1CCC[C@H]1C(=O)N2 [TxIB(G)] (H-GCCSDPPCRNKHPDLCG-NH2; disulfide 2-8, 3-16)",IC50,α9α10 nAChR,> 10 µM
same,IC50,α6/α3β4 nAChR,> 10 µM
same,IC50,α4β4 nAChR,> 10 µM
same,IC50,α6/α3β2β3 nAChR,247 nM
same,Ratio of half-blocking dose (IC50) between TxIB(G) and TxIB,α6/α3β2β3 nAChR,8.7
same,IC50,α2β4 nAChR,> 10 µM
same,IC50,α3β4 nAChR,> 10 µM
same,IC50,α7 nAChR,> 10 µM
same,IC50,α2β2 nAChR,> 10 µM
same,IC50,α4β2 nAChR,> 10 µM
same,IC50,α3β2 nAChR,> 10 µM
same,blocking activity on human α6/α3β2β3 nAChR,human α6/α3β2β3 nAChR,blocking activity similar to those for rat α6/α3β2β3 nAChR
"CC(C)C[C@@H]1NC(=O)[C@H](CC(=O)O)NC(=O)[C@@H]2CCCN2C(=O)[C@H](Cc2c[nH]cn2)NC(=O)[C@H](CCCCN)NC(=O)[C@H](CC(N)=O)NC(=O)[C@H](CCCNC(=N)N)NC(=O)[C@@H]2CSSC[C@H](NC(=O)CN)C(=O)N[C@@H](CSSC[C@@H](C(N)=O)NC1=O)C(=O)N[C@@H](CO)C(=O)N[C@@H](CC(=O)O)C(=O)N1CCC[C@H]1C(=O)N1CCC[C@H]1C(=O)N2 [TxIB] (H-GCCSDPPCRNKHPDLC-NH2; disulfide 2-8, 3-16)",blocking of ACh-gated current,α6/α3β4 nAChR,totally does not block; also recorded: no blocking activity
same,Hill slope of dose-response curve,α6/α3β2β3 nAChR,0.51 (0.41-0.60)
same,Ratio of half-blocking dose (IC50) between TxIB(G) and TxIB,α6/α3β2β3 nAChR,1
same,blocking of ACh-gated current,α6/α3β2β3 nAChR,specifically blocked; also recorded: almost total blocked
same,blocking of ACh-gated current,α3β4 nAChR,totally does not block; also recorded: no blocking activity
same,blocking of ACh-gated current,α3β2 nAChR,totally does not block; also recorded: no blocking activity
same,IC50,other nAChRs subtypes,> 10 µM
same,blocking activity on human α6/α3β2β3 nAChR,human α6/α3β2β3 nAChR,blocking activity similar to those for rat α6/α3β2β3 nAChR
"CC(C)C[C@@H]1NC(=O)[C@H](CC(=O)O)NC(=O)[C@@H]2CCCN2C(=O)[C@H](Cc2cnc[nH]2)NC(=O)[C@H](CCCCN)NC(=O)[C@H](CC(N)=O)NC(=O)[C@H](CCCNC(=N)N)NC(=O)[C@@H]2CSSC[C@H](NC(=O)CN)C(=O)N[C@@H](CSSC[C@@H](C(N)=O)NC1=O)C(=O)N[C@@H](CO)C(=O)N[C@@H](CC(=O)O)C(=O)N1CCC[C@H]1C(=O)N1CCC[C@H]1C(=O)N2 [TxIB] (H-GCCSDPPCRNKHPDLC-NH2; disulfide 2-8, 3-16)",IC50,α9α10 nAChR,> 10 µM
same,IC50,α6/α3β4 nAChR,> 10 µM
same,IC50,α4β4 nAChR,> 10 µM
same,IC50,α6/α3β2β3 nAChR,28.4 nM
same,IC50,α2β4 nAChR,> 10 µM
same,IC50,α3β4 nAChR,> 10 µM
same,IC50,α7 nAChR,> 10 µM
same,IC50,α2β2 nAChR,> 10 µM
same,IC50,α4β2 nAChR,> 10 µM
same,IC50,α3β2 nAChR,> 10 µM
CC[C@H](C)[C@@H]1NC(=O)[C@@H]2CCCN2C(=O)[C@H](CO)NC(=O)[C@H](CCSC)NC(=O)[C@H](C)NC(=O)[C@H](CO)NC(=O)[C@@H]2CSSC[C@H](NC(=O)CN)C(=O)N[C@@H](CSSC[C@@H](C(N)=O)NC1=O)C(=O)N[C@@H](CO)C(=O)N[C@@H](Cc1c[nH]cn1)C(=O)N1CCC[C@H]1C(=O)N[C@@H](C(C)C)C(=O)N2 [TxIC],Hill slope of dose-response curve,α6/α3β4 nAChR,0.26 (0.73-1.87)
same,blocking of ACh-gated current,α4β4 nAChR,totally does not block; also recorded: no blocking activity
same,Hill slope of dose-response curve,α2β4 nAChR,0.20 (1.48-2.42)
same,Hill slope of dose-response curve,α3β4 nAChR,0.19 (0.66-1.44)
same,blocking of ACh-gated current,α3β4 nAChR,specifically blocked; also recorded: completely blocked
same,blocking of ACh-gated current,α7 nAChR,totally does not block; also recorded: no blocking activity
same,IC50,other nAChRs subtypes,> 10 µM
GCCSDPRCNYDHPEIC* [Vc1.1],IC50,[1],19 nM
same,IC50,[2],7300 nM
same,IC50,[3],140 nM
same,IC50,[4],980 nM
GCCSHPACNVNNPHIC* [RegIIA],IC50,[5],103 nM
same,IC50,[6],97 nM
same,IC50,[2],33 nM
GCCSHPACSVNHPELC* [PeIA],IC50,[5],1800 nM
same,IC50,[6],480 nM
same,IC50,[1],6.9 to 54.9 nM
same,IC50,[2],23 to 97.5 nM
GCCSYPPCFATNP-DC* [AuIB],IC50,[6],750 nM
NGRCC-HPACGKHFN--C* [Ac1.1a],nAChRs selectivity,nAChRs,Muscle nAChR
RDPCCSNPVCTVHNPQIC* [PIA],IC50,[6],518 nM
same,IC50,[2],74.2 nM
same,IC50,[3],1 to 1.7 nM
same,IC50,[4],12.6 to 30.5 nM
RTCCSRPTCRMEYPELC*grr [SrIA/SrIB],nAChRs selectivity,nAChRs,Muscle nAChR/α4β2
B1,IC50 (half-blocking dose) on ACh-gated current,[7],247 nM
same,IC50 (half-blocking dose) on ACh-gated current,rat α6/α3β4 nAChR (rat),> 10 µM
same,IC50 (half-blocking dose) on ACh-gated current,rat α7 nAChR,> 10 µM
same,IC50 (half-blocking dose) on ACh-gated current,rat α2β2 nAChR,> 10 µM
same,IC50 (half-blocking dose) on ACh-gated current,rat α9α10 nAChR,> 10 µM
same,IC50 (half-blocking dose) on ACh-gated current,rat α4β2 nAChR,> 10 µM
same,IC50 (half-blocking dose) on ACh-gated current,rat α3β2 nAChR,> 10 µM
same,IC50 (half-blocking dose) on ACh-gated current,rat α4β4 nAChR,> 10 µM
same,IC50 (half-blocking dose) on ACh-gated current,rat α2β4 nAChR,> 10 µM
same,IC50 (half-blocking dose) on ACh-gated current,rat α3β4 nAChR,> 10 µM
B2,IC50 (half-blocking dose) on ACh-gated current,[7],28.4 nM
same,IC50 (half-blocking dose) on ACh-gated current,rat α6/α3β4 nAChR (rat),> 10 µM
same,IC50 (half-blocking dose) on ACh-gated current,rat α7 nAChR,> 10 µM
same,IC50 (half-blocking dose) on ACh-gated current,rat α2β2 nAChR,> 10 µM
same,IC50 (half-blocking dose) on ACh-gated current,rat α9α10 nAChR,> 10 µM
same,IC50 (half-blocking dose) on ACh-gated current,rat α4β2 nAChR,> 10 µM
same,IC50 (half-blocking dose) on ACh-gated current,rat α3β2 nAChR,> 10 µM
same,IC50 (half-blocking dose) on ACh-gated current,rat α4β4 nAChR,> 10 µM
same,IC50 (half-blocking dose) on ACh-gated current,rat α2β4 nAChR,> 10 µM
same,IC50 (half-blocking dose) on ACh-gated current,rat α3β4 nAChR,> 10 µM
